Among the data in ChEMBL document CHEMBL1201862, “PubChem BioAssay data set” (2004) are AC50, IC50 and EC50 values, retold here.

Experiment [1] can be described thus: viability loss in CEM21 cells – cell-based, plate reader, dry powder, cytotoxicity control, dose response (AID 687026). The class given is functional.
A short description of experiment [2]: inhibition of Env-driven cell fusion – HIV entry, plate reader, dry powder, dose response (AID 687023). The class given is functional, cell-based.
The nature of experiment [3]: viability reduction in hepatoma cells – cell-based, ATP luminescence, dry powder, Set4, cytotoxicity control, dose response (AID 743143). To be noted: HepG2. The class given is functional.
The target of experiment [4] is Delta-type opioid receptor (Homo sapiens, UniProt P41143). In words: Late-stage results from the probe development effort to identify antagonists of OPRK1: fluorescence-based cell-based dose response OPRD1 counterscreen. The experiment is classed as functional. Background: A counterscreen serves to expose hits that act by an unwanted route or on another target.
Sequence of Delta-type opioid receptor (P41143 whole entry): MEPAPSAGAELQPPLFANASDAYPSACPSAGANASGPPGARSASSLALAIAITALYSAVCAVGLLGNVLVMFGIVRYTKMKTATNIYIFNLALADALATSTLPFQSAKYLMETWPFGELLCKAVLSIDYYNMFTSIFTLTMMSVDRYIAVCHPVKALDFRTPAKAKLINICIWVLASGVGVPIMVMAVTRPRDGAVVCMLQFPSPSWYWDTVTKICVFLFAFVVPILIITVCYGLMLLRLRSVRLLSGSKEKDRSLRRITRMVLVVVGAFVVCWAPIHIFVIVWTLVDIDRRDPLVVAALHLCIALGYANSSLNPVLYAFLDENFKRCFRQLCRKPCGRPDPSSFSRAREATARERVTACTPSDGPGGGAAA
The target of the next experiment is Mu-type opioid receptor (Homo sapiens, UniProt P35372). The experiment is described as follows: Late-stage results from the probe development effort to identify antagonists of OPRK1: luminescence-based cell-based dose response OPRM1 counterscreen. The class given is functional.
Sequence of Mu-type opioid receptor (P35372 whole entry): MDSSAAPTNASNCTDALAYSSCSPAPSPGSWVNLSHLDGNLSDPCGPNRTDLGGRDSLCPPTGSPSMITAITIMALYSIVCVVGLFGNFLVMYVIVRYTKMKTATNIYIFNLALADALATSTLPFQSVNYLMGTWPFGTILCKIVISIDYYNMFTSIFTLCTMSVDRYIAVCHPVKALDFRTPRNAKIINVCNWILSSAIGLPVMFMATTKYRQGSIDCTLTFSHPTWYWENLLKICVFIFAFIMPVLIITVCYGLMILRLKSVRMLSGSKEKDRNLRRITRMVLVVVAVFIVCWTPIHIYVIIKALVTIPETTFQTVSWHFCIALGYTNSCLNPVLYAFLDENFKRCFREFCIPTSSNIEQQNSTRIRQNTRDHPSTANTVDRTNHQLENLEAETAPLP
Experiment [5] is described as follows: ATP-based viability loss in HepG2 cells – cell-based, CellTiter-Glo luminescence, dry powder, set 3, cytotoxicity control, dose response (AID 720594). The class given is functional. A general note: Cellular ATP, detected with luciferase, serves as a proxy for viable cell number.
Experiment [6] is described as follows: ATP-based viability loss in HeLa cells – cell-based, CellTiter-Glo luminescence, dry powder, set 2, cytotoxicity control, dose response (AID 720593). The class given is functional.
Experiment [7] has as its target Lysine-specific demethylase 4C (Homo sapiens, UniProt Q9H3R0). In words: inhibition of JMJD2C H3K9me3 demethylation – biochemical, DELFIA europium, cherry-picked samples, dose response (AID 488835). The experiment is classed as functional.
Experiment [8] in a line: viability of HCT116 lacking mutant beta-catenin – cell-based, human colon tumor, dose response (AID 1045).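 Also: HCT116 colon tumor cells with beta catenin knocked out; cells exposed to compound for 60 hours.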 The experiment is classed as functional.
The nature of experiment [9]: viability of PTEN-deleted HCT116 cells – cell-based, HCT116 PTEN knockout, dose response (AID 1047).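 Also: HCT116 colon tumor cells with PTEN knocked out; cells exposed to compound for 60 hours before readout; potency for loss of cell viability measured by luminescence.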 The class given is functional.
Experiment [10] can be described thus: Luminescence Cell-Based Dose Response HTS to Identify Inhibitors of 5'UTR Stem-Loop Driven Prion Protein mRNA Translation in H4 Neuroglioblastoma Cells. [Related pubchem assays: 1827 (Project Summary), 1813 (Primary HTS)]. The experiment is classed as functional.
Experiment [11] concerns the target T1, Replicative DNA helicase DnaB (Mycobacterium tuberculosis, UniProt P9WMR3).
T1 sequence (P9WMR3 whole entry): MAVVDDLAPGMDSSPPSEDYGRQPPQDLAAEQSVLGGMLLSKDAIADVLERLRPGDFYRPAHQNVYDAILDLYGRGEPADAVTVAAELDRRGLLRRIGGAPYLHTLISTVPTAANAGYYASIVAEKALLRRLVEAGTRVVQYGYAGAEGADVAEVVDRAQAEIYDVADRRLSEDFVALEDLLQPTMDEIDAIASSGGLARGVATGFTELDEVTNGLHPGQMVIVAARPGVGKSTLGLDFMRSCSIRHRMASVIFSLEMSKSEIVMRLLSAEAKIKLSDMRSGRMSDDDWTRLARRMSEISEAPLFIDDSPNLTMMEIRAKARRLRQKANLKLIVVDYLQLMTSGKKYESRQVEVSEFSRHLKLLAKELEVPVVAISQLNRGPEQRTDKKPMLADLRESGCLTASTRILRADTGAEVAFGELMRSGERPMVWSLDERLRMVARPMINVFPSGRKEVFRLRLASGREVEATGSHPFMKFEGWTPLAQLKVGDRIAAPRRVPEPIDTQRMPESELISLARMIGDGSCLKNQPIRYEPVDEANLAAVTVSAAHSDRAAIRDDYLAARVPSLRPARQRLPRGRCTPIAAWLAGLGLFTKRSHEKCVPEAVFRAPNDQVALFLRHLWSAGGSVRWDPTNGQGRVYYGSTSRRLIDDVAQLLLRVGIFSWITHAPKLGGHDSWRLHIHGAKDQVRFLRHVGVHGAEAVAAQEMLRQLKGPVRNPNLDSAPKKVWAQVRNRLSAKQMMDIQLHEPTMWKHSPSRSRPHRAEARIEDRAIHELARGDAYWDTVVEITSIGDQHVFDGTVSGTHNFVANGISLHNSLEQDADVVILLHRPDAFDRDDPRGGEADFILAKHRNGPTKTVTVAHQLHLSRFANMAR
The experiment is described as follows: DnaB intein splicing inhibitors, dose response, biochemical, cell-free fluorescence (AID 449749). The class given is functional.

Experiment [12] in a line: HEK-293T viability loss after treatment – luminescence, T-cell screen hits, cytotoxicity control for TCR NF-kB inhibitor project, dose response (AID 489026).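 Also: cells exposed to compound about 14 hours before the viability readout.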 The experiment is classed as functional, cell-based.
The next experiment concerns the target T2, Protein RecA (Mycobacterium tuberculosis, UniProt P9WHJ3).
T2 sequence (P9WHJ3 whole entry): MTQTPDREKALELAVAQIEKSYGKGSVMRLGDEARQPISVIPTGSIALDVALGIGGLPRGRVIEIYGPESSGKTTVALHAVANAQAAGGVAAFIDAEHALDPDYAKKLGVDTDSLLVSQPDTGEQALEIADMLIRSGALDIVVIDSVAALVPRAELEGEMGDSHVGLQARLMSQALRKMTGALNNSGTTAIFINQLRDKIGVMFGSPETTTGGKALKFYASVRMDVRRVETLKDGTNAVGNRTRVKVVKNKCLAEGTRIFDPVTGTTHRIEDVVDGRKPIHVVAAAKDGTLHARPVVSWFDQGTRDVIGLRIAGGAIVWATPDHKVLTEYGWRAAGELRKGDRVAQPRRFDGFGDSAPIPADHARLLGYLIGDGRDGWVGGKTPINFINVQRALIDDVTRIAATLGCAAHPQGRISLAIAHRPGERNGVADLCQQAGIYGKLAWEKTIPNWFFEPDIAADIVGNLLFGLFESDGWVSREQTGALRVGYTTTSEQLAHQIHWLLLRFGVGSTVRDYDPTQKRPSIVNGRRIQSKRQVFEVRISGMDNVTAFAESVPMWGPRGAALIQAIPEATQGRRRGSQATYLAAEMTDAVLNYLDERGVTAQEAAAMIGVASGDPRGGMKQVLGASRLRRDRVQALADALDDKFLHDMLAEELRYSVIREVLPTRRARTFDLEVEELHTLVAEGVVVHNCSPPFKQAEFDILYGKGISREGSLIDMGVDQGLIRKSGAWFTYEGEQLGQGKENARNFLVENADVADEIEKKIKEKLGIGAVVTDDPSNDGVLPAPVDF
The experiment is described as follows: Fluorescence Cell-Free Homogeneous Dose Retest to Identify Inhibitors of RecA-Intein Splicing Activity. [Related pubchem assays (depositor defined):AID2097, AID2223, AID489010, AID492950]. The experiment is classed as functional.

In the next experiment the test system is INS1. The experiment is described as follows: INS-1E survival protection against cytokine death – cell-based, luminescence, retest, dose response (AID 449756).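 Also: cell death triggered by IL-1 beta plus TNF-alpha plus IFN-gamma mixture; protective hits raise ATP signal compared with cytokine alone wells.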 The class given is functional. To be noted: Rattus norvegicus.
Experiment [13] in a line: viability loss in MITF-independent A375 cells – cell-based, CellTiter-Glo luminescence, dry powder, set 2, counter-screen for MITF inhibitor project, dose response (AID 624489).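 Also: actives are compounds lowering A375 viability meaning general cytotoxicity.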 The class given is functional. To be noted: A-375.
Experiment [14] in a line: alpha-synuclein stem-loop luciferase translation blockers – H4 neuroglioma cells, luminescence, confirmation (AID 1988). The class given is functional, cell-based.
Experiment [15] is described as follows: cytotoxicity in MITF-independent A375 cells – cell-based, CellTiter-Glo luminescence, dry powder, set 4, counter-screen for MITF inhibitor project, dose response (AID 624364).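 Also: A375 melanoma cells are MITF independent so this is a counter screen.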 The experiment is classed as functional. To be noted: A-375.
The target of experiment [16] is T3, Microphthalmia-associated transcription factor (Homo sapiens, UniProt O75030).
T3 sequence (O75030 whole entry): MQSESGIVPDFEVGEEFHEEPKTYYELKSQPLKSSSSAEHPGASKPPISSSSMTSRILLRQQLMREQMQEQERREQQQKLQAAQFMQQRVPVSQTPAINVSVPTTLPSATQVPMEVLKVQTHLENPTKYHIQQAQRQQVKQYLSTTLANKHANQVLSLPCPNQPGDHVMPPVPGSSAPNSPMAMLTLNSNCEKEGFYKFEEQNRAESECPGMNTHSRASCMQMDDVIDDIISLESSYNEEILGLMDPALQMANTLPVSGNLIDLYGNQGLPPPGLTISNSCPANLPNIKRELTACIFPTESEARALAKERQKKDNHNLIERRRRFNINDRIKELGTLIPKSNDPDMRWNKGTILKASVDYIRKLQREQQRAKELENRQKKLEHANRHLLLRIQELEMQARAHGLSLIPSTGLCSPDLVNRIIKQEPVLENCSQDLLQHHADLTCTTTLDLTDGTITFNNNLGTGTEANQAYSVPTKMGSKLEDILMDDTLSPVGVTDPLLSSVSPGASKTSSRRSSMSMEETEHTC
In words: reducers of TRPM1 reporter luminescence, concentration series – cell-based, SK-MEL-5, cherry-picked, set 3, MITF inhibitor project, dose response (AID 493073).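 Also: SK-MEL-5 melanoma cells with luciferase driven by the MITF target TRPM1 promoter.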 The experiment is classed as functional.

Experiment [17] is described as follows: luciferase reporter signal suppression in cells – H4 neuroglioma cells, luminescence, dose response (AID 1990). The experiment is classed as functional, cell-based. In general terms: A reporter such as luciferase makes a cellular process visible.

Several values for one entry are separate records, joined by “and”; a condition that tells them apart may be missing. Equal entries are not always repeated. Activity calls are given as the source filed them. A value given as a limit tells only on which side of the number the result lay.

Sequence of Lysine-specific demethylase 4C (Q9H3R0 whole entry): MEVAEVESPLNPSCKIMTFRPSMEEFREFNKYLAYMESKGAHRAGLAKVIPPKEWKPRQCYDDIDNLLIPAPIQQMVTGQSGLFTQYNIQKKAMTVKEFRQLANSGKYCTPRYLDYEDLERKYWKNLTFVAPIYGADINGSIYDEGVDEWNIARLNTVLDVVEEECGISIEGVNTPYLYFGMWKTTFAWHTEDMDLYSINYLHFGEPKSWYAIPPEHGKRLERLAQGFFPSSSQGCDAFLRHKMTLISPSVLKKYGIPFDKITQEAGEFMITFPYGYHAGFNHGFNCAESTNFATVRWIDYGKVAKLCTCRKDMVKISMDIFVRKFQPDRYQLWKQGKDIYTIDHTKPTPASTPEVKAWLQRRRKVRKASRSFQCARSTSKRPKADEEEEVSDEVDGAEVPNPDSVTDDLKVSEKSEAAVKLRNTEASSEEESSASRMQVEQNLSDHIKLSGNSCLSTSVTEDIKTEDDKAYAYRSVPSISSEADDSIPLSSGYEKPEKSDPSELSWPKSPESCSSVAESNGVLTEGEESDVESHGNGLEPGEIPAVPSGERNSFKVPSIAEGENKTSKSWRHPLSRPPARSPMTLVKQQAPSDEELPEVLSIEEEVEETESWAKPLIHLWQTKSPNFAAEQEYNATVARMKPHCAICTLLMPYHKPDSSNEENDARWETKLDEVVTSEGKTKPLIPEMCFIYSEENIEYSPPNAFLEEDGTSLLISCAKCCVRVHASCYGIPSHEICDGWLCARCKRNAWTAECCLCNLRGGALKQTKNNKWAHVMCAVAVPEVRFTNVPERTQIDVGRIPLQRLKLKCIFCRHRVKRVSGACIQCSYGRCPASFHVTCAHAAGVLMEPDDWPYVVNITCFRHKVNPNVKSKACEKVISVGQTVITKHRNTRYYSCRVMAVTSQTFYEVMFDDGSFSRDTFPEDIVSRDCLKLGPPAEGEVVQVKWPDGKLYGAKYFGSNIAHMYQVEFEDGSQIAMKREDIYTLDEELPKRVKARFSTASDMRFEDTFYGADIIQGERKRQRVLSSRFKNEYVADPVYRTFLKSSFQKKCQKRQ

Usually AC50 stands for the concentration giving half of the maximal activity seen. Turning to `O=S(=O)(NCc1ccncc1)c1ccc2c(c1)OCCO2`, the AC50 in experiment [1] was > 70 µM (inactive); in experiment [2], 125 nM (active) and 167 nM (active).
For the compound `O=C(CCn1cnc2ccccc2c1=O)NC1CCCc2ccccc21` (stereo not given), in experiment [3], the AC50 is > 52 µM (inactive).
As usually defined, the IC50 is the concentration needed to halve the response being measured. For the compound `COC(=O)c1cc(I)cnc1N1CCC(NC2CCCCC2)CC1`, the IC50 in [4] was 2.5 µM (active); at Mu-type opioid receptor it was 0.479 µM (active).
For the compound `COc1ccc(-c2nnc(NC(=O)c3ccc(S(=O)(=O)N4CCC(C)CC4)cc3)o2)cc1`, the AC50 in [5] and in [6] was > 52 µM (inactive) each time.
The term EC50 denotes the concentration needed to bring the measured effect to its halfway point. Turning to `CC(=O)N(C)C1=C(N2CCOCC2)C(=O)c2ccccc2C1=O`, the AC50 in experiment [7] was 31.2 µM (active); in experiment [11], 51.3 µM (active); in the experiment on INS1, 1.67 µM (active); in experiment [13], 13.9 µM (active); in [15] it was 32.1 µM (active); in [16], 3.5 µM (active). Further, the EC50 in experiment [8] is 1.81 µM (active); in experiment [9], 1.91 µM (active); in experiment [10], 11.7 µM (active); at Protein RecA, 38.4 µM (active); in experiment [14], 7.74 µM (active); in [17], 10.8 µM (active). In addition, the IC50 in experiment [12] is 4.03 µM (active).
